# Paper PMC4486954, “Highly homologous proteins exert opposite biological activities by using different interaction interfaces” (Scientific Reports, 2015)
# T1: iASPP Ank-SH3 (Homo sapiens, UniProt Q8WUF5)
# T1 construct: (2) iASPP Ank-SH3 603-828; HLT tag (His tag + lipoyl domain + TEV site) (N, cleaved yes); made in house; host or cells: E. coli HMS 174 (Novagen)
# T1 sequence (Q8WUF5 603-828): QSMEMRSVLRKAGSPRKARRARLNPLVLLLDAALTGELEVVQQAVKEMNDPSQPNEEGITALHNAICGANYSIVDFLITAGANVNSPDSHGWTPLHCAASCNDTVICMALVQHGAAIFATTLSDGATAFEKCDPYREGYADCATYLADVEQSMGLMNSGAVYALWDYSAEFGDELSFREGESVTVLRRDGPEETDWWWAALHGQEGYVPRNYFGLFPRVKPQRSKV
# T2: HLT-iASPP Pro (human, UniProt Q8WUF5 1-602)
# T2 construct: iASPP (human), proline rich (Pro) domain, residues 1-602 of the 828-residue protein, Swiss-Prot Q8WUF5; Cloned EcoRI/NotI into pHis parallel 2HLT; calculated Mw with tag 75.9 kDa; also called iASPP Pro 1-602; iASPP 1-602; source: E. coli Rosetta2, purified (Nickel Sepharose, size exclusion chromatography); not shown: HLT (His tag, lipoyl domain, TEV protease cleavage site), N-terminal, kept
# T2 sequence (looked up): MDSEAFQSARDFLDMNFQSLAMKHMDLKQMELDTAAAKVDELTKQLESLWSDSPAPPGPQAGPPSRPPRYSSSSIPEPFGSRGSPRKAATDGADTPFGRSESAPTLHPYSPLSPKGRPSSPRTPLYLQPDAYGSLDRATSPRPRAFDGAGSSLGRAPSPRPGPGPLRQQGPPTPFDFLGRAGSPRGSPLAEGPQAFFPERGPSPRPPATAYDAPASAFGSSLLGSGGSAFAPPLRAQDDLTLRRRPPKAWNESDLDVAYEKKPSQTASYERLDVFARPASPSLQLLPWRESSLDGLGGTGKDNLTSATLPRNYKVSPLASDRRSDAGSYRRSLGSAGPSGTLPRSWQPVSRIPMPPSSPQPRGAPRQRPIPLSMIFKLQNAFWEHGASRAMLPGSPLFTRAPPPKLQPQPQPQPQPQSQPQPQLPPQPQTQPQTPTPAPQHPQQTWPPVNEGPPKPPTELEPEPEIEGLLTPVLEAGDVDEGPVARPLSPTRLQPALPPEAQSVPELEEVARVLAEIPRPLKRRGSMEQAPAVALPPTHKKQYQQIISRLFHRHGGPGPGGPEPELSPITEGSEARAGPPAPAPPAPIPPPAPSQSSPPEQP
# T3: HLT-iASPP Ank-SH3 (human, UniProt Q8WUF5 603-828)
# T3 construct: iASPP (human), four ankyrin repeats and SH3 domain, residues 603-828, Swiss-Prot Q8WUF5; Detected on the arrays by its His tag (anti His HRP antibody); source: E. coli HMS 174, purified (Nickel Sepharose, size exclusion chromatography); not shown: HLT (His tag, lipoyl domain, TEV protease cleavage site), N-terminal, kept
# T3 sequence (looked up): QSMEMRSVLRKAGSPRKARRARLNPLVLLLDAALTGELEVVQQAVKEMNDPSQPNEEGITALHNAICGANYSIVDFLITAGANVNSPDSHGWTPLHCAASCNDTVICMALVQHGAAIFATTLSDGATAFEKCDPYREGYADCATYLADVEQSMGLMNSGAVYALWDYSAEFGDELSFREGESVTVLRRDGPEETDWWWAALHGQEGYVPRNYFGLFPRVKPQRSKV
# Molecular target: T1, iASPP Ank-SH3
# Assay: not given
# Details: cited from earlier work
# Excerpt: iASPP 1-478 and specifically iASPP 1-240 but not iASPP 249-482 were previously shown to bind iASPP Ank-SH3 in a pull down assay. We further mapped this interaction using peptide arrays and identified the exact regions in iASPP Pro that bind iASPP Ank-SH3.
row,Molecule,binding to iASPP Ank-SH3 in pull down assay
1,"iASPP 1-478: iASPP fragment 1-478 of a previous pull down assay (protein, UniProt Q8WUF5 1-478, looked up, fragment) MDSEAFQSARDFLDMNFQSLAMKHMDLKQMELDTAAAKVDELTKQLESLWSDSPAPPGPQAGPPSRPPRYSSSSIPEPFGSRGSPRKAATDGADTPFGRSESAPTLHPYSPLSPKGRPSSPRTPLYLQPDAYGSLDRATSPRPRAFDGAGSSLGRAPSPRPGPGPLRQQGPPTPFDFLGRAGSPRGSPLAEGPQAFFPERGPSPRPPATAYDAPASAFGSSLLGSGGSAFAPPLRAQDDLTLRRRPPKAWNESDLDVAYEKKPSQTASYERLDVFARPASPSLQLLPWRESSLDGLGGTGKDNLTSATLPRNYKVSPLASDRRSDAGSYRRSLGSAGPSGTLPRSWQPVSRIPMPPSSPQPRGAPRQRPIPLSMIFKLQNAFWEHGASRAMLPGSPLFTRAPPPKLQPQPQPQPQPQSQPQPQLPPQPQTQPQTPTPAPQHPQQTWPPVNEGPPKPPTELEPEPEIEGLLTPVLEAGD",bind

# Molecular target: T1, iASPP Ank-SH3
# Assay: Fluorescence anisotropy binding of fluorescein-labeled iASPP Pro derived peptides to iASPP Ank-SH3
# Details: 250 μM iASPP Ank-SH3 titrated into 100 nM fluorescein-labeled peptide, 10 °C, 20 mM Hepes pH 7.3, ionic strength 50 mM
# Description: Binding of the iASPP Pro-derived peptides to iASPP Ank-SH3 was measured by fluorescence anisotropy using a PerkinElmer Life Sciences LS-50b spectrofluorimeter equipped with a Hamilton microlab M dispenser. Titration of iASPP Ank-SH3 into iASPP Pro derived fluorescein-labeled (FL) peptides was performed at 10 °C in 20 mM Hepes buffer, pH 7.3, 43 mM NaCl (total ionic strength = 50 mM), 10% glycerol and 5 mM β-mercaptoethanol. The excitation wavelength was set at 480 nm and the emission measured at 530 nm. The labeled peptide, dissolved in 1 ml buffer to a final concentration of 100 nM, was placed in the cuvette. 250 μM iASPP Ank-SH3 was placed in the dispenser and aliquots of 10–20 μl were added at 1.5 min intervals. The solution was then stirred for 30 sec, and the fluorescence and anisotropy were measured. Data were analyzed using the program Origin8 (OriginLab) and were fit to 1:1 binding model:
# [drawing 1] (R- measured fluorescence anisotropy, R0- anisotropy value corresponding to the free peptide, ∆R- amplitude of the fluorescence anisotropy change, [Protein]- protein concentration, Kd- dissociation constant).
row,Molecule,binding to iASPP Ank-SH3 (in words)
1,"PLFTRAPPPKLQPQP [iASPP 396-410, iASPP Pro derived peptide, residues 396-410]",too weak to quantify
2,"PTPFDFLGRAGSPRG [iASPP 172-186, iASPP Pro derived peptide, residues 172-186]",too weak to quantify
3,"TLPRNYKVSPLASDR [iASPP 308-322, iASPP Pro derived peptide, residues 308-322]",no binding
4,"PRYSSSSIPEPFGSR [iASPP 68-82, iASPP Pro derived peptide, residues 68-82]",no binding
5,"FFPERGPSPRPPATA [iASPP 196-210, iASPP Pro derived peptide, residues 196-210]",no binding
6,"APSPRPGPGPLRQQG [iASPP 156-170, iASPP Pro derived peptide, residues 156-170]",no binding
7,"VARPLSPTRLQPALP [iASPP 484-498, iASPP Pro derived peptide, residues 484-498]",too weak to quantify
8,"YGSLDRATSPRPRAF [iASPP 132-146, iASPP Pro derived peptide, residues 132-146]",too weak to quantify
9,"SDAGSYRRSLGSAGP [iASPP 324-338, iASPP Pro derived peptide, residues 324-338]",no binding

# System: HLT-iASPP Pro
# Assay: Peptide array screening: HLT-iASPP Pro binding to array of iASPP Ank-SH3 derived peptides
# Set-up: species or system human
# Details: CelluSpots array, N-acetylated 15-residue peptides on cellulose; 50 mM Phosphate pH 7.0, IS = 150 mM; anti His HRP, chemiluminescence
# Description: The CelluSpots^TM peptide micro-arrays were synthesized by INTAVIS Bioanalytical Instruments AG, Köln, Germany. The 15 residue peptides were acetylated at their N-termini and attached to a cellulose membrane via their C termini through an amide bond. For screening the binding of the array to HLT-iASPP Ank-SH3 the array was first washed for 4 h at room temperature with 50 mM Tris-HCl pH = 8 at an ionic strength (IS) of 150 mM adjusted by NaCl, 0.05% Tween20 and 2.5% (W/V) skimmed milk (buffer D) for blocking unspecific binding. HLT-iASPP Ank-SH3 was dissolved in 20 mM Phosphate buffer pH = 7.0 IS = 150 mM, 5 mM βME, 10% glycerol and 0.02% NaN3 and 2.5% skimmed milk. 5 ml of 5 μM of the protein were incubated with the arrays at 4 °C with shaking overnight. After three washes with TBST, the array was incubated with anti His HRP conjugated antibody at room temperature for 1 hour. The antibody was dissolved in buffer D. Then the array was washed again three times with TBST. Immunodetection was performed using chemiluminiscence (ECL reagents). Peptide array screening for binding HLT-iASPP Pro was also preformed as above with change of the proteins buffer. HLT-iASPP Pro was dissolved in 50 mM Phosphate buffer pH = 7.0, 10% glycerol, 0.02% NaN3, 0.001% Tween 20, IS = 150 mM and 2.5% skimmed milk.
row,Molecule,binding of HLT-iASPP Pro to the peptide in the array
1,"YALWDYSAEFGDELS [iASPP 764-778, array peptide, iASPP Ank-SH3 residues 764-778, RT loop]",bound
2,"EGYADCATYLADVEQ [iASPP 739-753, array peptide, iASPP Ank-SH3 residues 739-753, fourth ankyrin repeat]",bound
3,"WAALHGQEGYVPRNY [iASPP 800-814, array peptide, iASPP Ank-SH3 residues 800-814]",bound

# Molecular target: T2, HLT-iASPP Pro
# Assay: peptide or protein array; CelluSpots array of 24 partly overlapping 15-residue iASPP Ank-SH3 peptides on cellulose; HLT-iASPP Pro in 50 mM phosphate pH 7.0, 10% glycerol, 0.001% Tween 20, ionic strength 150 mM, 2.5% skimmed milk; detected with anti His HRP antibody
# Details: both partners purified
row,Molecule,binding result
1,"Ac-YALWDYSAEFGDELS-{cellulose membrane (amide bond)} (also: C-terminus bound to cellulose membrane via amide, source: synthetic peptide on CelluSpots array (INTAVIS)) [iASPP Ank-SH3 array peptide 764-778 (spot E19)]",binds
2,"Ac-WAALHGQEGYVPRNY-{cellulose membrane (amide bond)} (also: C-terminus bound to cellulose membrane via amide, iASPP (human) residues 800-814; also called iASPP 800-814; source: synthetic peptide on CelluSpots array (INTAVIS)) [iASPP Ank-SH3 array peptide 800-814 (spot E23)]",binds
3,"Ac-EGYADCATYLADVEQ-{cellulose membrane (amide bond)} (also: C-terminus bound to cellulose membrane via amide, source: synthetic peptide on CelluSpots array (INTAVIS)) [iASPP Ank-SH3 array peptide 739-753 (spot E16)]",binds

# Molecular target: T3, HLT-iASPP Ank-SH3
# Assay: peptide or protein array; CelluSpots array of 79 partly overlapping 15-residue iASPP Pro peptides on cellulose; 5 uM HLT-iASPP Ank-SH3 in 20 mM phosphate pH 7.0, ionic strength 150 mM, 5 mM βME, 10% glycerol, 2.5% skimmed milk; 4 °C overnight; detected with anti His HRP antibody
# Details: both partners purified
row,Molecule,binding result
1,"Ac-FFPERGPSPRPPATA-{cellulose membrane (amide bond)} (also: C-terminus bound to cellulose membrane via amide, iASPP (human) residues 196-210; source: synthetic peptide on CelluSpots array (INTAVIS)) [iASPP Pro array peptide 196-210 (spot B7)]",binds
2,"Ac-TLPRNYKVSPLASDR-{cellulose membrane (amide bond)} (also: C-terminus bound to cellulose membrane via amide, iASPP (human) residues 308-322; source: synthetic peptide on CelluSpots array (INTAVIS)) [iASPP Pro array peptide 308-322 (spot B21)]",binds
3,"Ac-PTPFDFLGRAGSPRG-{cellulose membrane (amide bond)} (also: C-terminus bound to cellulose membrane via amide, iASPP (human) residues 172-186; source: synthetic peptide on CelluSpots array (INTAVIS)) [iASPP Pro array peptide 172-186 (spot B4)]",binds
4,"Ac-APSPRPGPGPLRQQG-{cellulose membrane (amide bond)} (also: C-terminus bound to cellulose membrane via amide, iASPP (human) residues 156-170; source: synthetic peptide on CelluSpots array (INTAVIS)) [iASPP Pro array peptide 156-170 (spot B2)]",binds
